According to patent US11246910B2, “Methods of treating immunological disorders using immunosuppressive compositions” (Singapore Health Services Pte Ltd, priority 2016, dated 2022):

Experiments:
[1] = test system: DBA/2J mice with bleomycin-induced skin fibrosis; assay: Bleomycin-induced scleroderma (systemic sclerosis) mouse model; format: in vivo
Procedure: Skin fibrosis was induced in 6 to 8-week-old DBA/2J mice by subcutaneous injection of bleomycin (0.5 mg/mi) into defined areas of 1 cm^2 on the lower back every other day, for 21 days. After a 3-week bleomycin challenge, another 3-week treatment was followed. 50 ng/ml of CXCL5 was given twice/week for 3 consecutive weeks. Mice treated with dPBS, bone marrow-derived mesenchymal stem cells (BM-MSCs; 5-10×10^6 cells/kg, single injection) and Prednisolone (Pred) (1 mg/kg/day for first 10 days, 0.5 mg/kg/day for the second 10 days) were used as positive and standard controls. Mice were sacrificed on day 21 post-treatment and the injected skin and peripheral blood were processed for further analysis.
Lesioned skin areas were excised, fixed in 10% formalin, and embedded in paraffin. Sections (5 μm thick) were stained with hematoxylin & eosin (H&E). The dermal thickness was analyzed at 100-fold magnification by measuring the distance between the epidermal-dermal junction and the dermal-subcutaneous fat junction at four sites from the lesioned skin of each mouse. Dermal leukocyte infiltration was counted on randomly-taken photos with High Power Field (HPF) (400×). Five photos were taken for each mouse. The average cell number of these five photos was used for counting the leukocyte infiltration. Two independent examiners performed the evaluation.

[2] = test system: NSG mice with GVHD; assay: Xenogeneic GVHD mouse model (human PBMCs into irradiated NSG mice)
Procedure: Moderate and severe xenogeneic GVHD mouse model was induced by injecting 200×10^6 cells/kg and 400×10^6 cells/kg of human cryopreserved PBMCs to NSG mice respectively by IV injection via tail vein. 240 cGy of irradiation was given to the mice 3-4 hours before the transplantation. […] NSG mice injected with dPBS were used as negative control. […] Injection volume was normalized to the body weight of the mice. Mouse survival was monitored daily, while clinical scoring was done every three days. 30-40 ul of mouse peripheral blood (PB) was collected from tail vein every 3 days, from day 18 onwards until day 36 post-treatment. Mouse plasma and isolated cells from PB, marrow and spleen were used for luminex assay (Bio-rad) and flow cytometry analysis (CyAN, Beckman coulter). […] At day 0, human PBMCs were transplanted into NSG mice to create the referenced GVHD model. The onset of GVHD is took place around day 10 to day 12 PT. Treatment of the sick mice commenced on day 10, day 14, day 17 and day 21 PT, and samples were taken from the mice on day 18, 21, 24, 27, 30, 33 and 36 PT.
Mouse survival was monitored daily and clinical score (for GVHD) was monitored every three days. The assessment of clinical GVHD index was based on five parameters: weight loss, posture, activity, fur texture and skin integrity, giving a maximum index of 10. At experimental end-point on day 30 post-treatment, histological evaluation was performed on representative mice on the following tissues: skin, small intestine and kidney with Haematoxylin and Eosin (H&E) stain. Key histological parameters assessed were different for each tissue type according to accepted published criteria for acute GVHD in the different organ systems. Basal vacuolar change, spongiosis and lymphocytic satelittosis were graded for skin; crypt apoptosis, lymphocytic inflammation and intraepithelial lymphocytosis was graded for small intestine; and interstitial inflammation, tubulitis and arterial changes were graded for kidney. All parameters were graded with 4 tiers (none, mild, moderate and severe) and given a score of 0-3, giving a maximum index of 27 (Table 7). The slides were scored in blinded fashion by a single observer.
Circulating human source cytokines/chemokines were measured using a Bio-plex Pro Human Cytokine 17-plex kit (Bio-rad). It included analytes of G-CSF, GM-CSF, IFN-γ, IL-1β, IL-2, IL-4, IL-5, IL-6, IL-7, IL-8, IL-10, IL-12, IL-13, IL-17A, MCP-1, MIP-1β and TNF-α in the analysis. Following the standard protocol, 16 times diluted plasma samples were incubated with magnetic beads for 2 hours, the with detection antibodies for 1 hour and finally with streptavidin-PE for 10 minutes at room temperature. Three complete wash steps were required between each incubation step. The plate was read on Milliplex Analyzer (Millipore) with Luminex xPONENT software.
Cells isolated from NSG mouse peripheral blood (PB) harvested from tail vein, BM and spleen were subjected to flow cytometric analysis using CyAN (Beckman coulter) with Summit software.

[3] = histological score in NSG mice, H&E, Table 7

Question: Which “leukocyte infiltration in the skin” value ([1]; FIG. 22B) does the source give for “CXCL5: epithelial-derived neutrophil-activating protein 78, a CXC chemokine; human source” here?
Answer: 2.3±2.0 cells/HPF

Question: What about the “hematopoiesis in bone marrow” value ([1]; FIG. 23A) of the same substance?
Answer: maintain the normal hematopoiesis in bone marrow

Question: And the “effector cells in peripheral blood” value ([1]; FIG. 23B)?
Answer: suppressing the proliferation of monocytes and TH1 cells in peripheral blood

Question: What about the skin thickness ([1]; after 3-week treatment (FIG. 22A)) of the same substance?
Answer: 277.2±47.6 μm

Question: What about the “Kidney: Arterial changes” value [2, 3] of the same substance?
Answer: none (graded with 4 tiers (none, mild, moderate and severe) and given a score of 0-3)

Question: What about the “Kidney: Interstitial inflammation” value [2, 3] of the same substance?
Answer: mild (graded with 4 tiers (none, mild, moderate and severe) and given a score of 0-3)

Question: And the “Kidney: Tubulitis” value [2, 3]?
Answer: mild (graded with 4 tiers (none, mild, moderate and severe) and given a score of 0-3)

Question: What about the “Skin: Lymphocytic satelitosis number of cells” value [2, 3] of the same substance?
Answer: < 5

Question: And the “Skin: Lymphocytic satelitosis, grade” value [2, 3]?
Answer: mild (graded with 4 tiers (none, mild, moderate and severe) and given a score of 0-3)

Question: And the “Skin: Vacuolar change” value [2, 3]?
Answer: none (graded with 4 tiers (none, mild, moderate and severe) and given a score of 0-3)

Question: What about the “Skin: spongiosis” value [2, 3] of the same substance?
Answer: none (graded with 4 tiers (none, mild, moderate and severe) and given a score of 0-3)

Question: What about the “Small intestine: Apoptosis” value [2, 3] of the same substance?
Answer: 1 /hpf

Question: What about the “Small intestine: Apoptosis, grade” value [2, 3] of the same substance?
Answer: mild (graded with 4 tiers (none, mild, moderate and severe) and given a score of 0-3)

Question: And the “Small intestine: Intraepithelial lymphocytosis” value [2, 3]?
Answer: 2/50 epithelial /50 epithelial cells

Question: And the “Small intestine: Intraepithelial lymphocytosis, grade” value [2, 3]?
Answer: cells(mild) (graded with 4 tiers (none, mild, moderate and severe) and given a score of 0-3)

Question: What about the “Small intestine: Lymphocytic inflammation” value [2, 3] of the same substance?
Answer: mild (graded with 4 tiers (none, mild, moderate and severe) and given a score of 0-3)

Question: What about the “Σscore (overall histological score)” value ([2]; maximum index 27, Mild, 0-9, moderate, 10-18, Severe, 19-27) of the same substance?
Answer: 6

Question: And the 36-day survival ([2]; moderate GVHD)?
Answer: 78.3%

Question: And the symptoms ([2]; moderate GVHD)?
Answer: mild

Question: What about the “human pro-inflammatory cytokine secretion in the circulation” value ([2]; plasma, Luminex 17-plex (FIGS. 8, 11)) of the same substance?
Answer: comparable to the 2F cocktail in the suppression of pro-inflammatory cytokines IFN-γ, IL-6, IL-8, and MIP-1β

Question: And the 36-day survival ([2]; severe GVHD)?
Answer: 26.1%

Question: What about the symptoms ([2]; severe GVHD) of the same substance?
Answer: moderate

Question: What about the “immunosuppression effect on circulating CTLs, Th1 cells, splenic macrophages and NK cells” value ([2]; single factor alone, cell population assay (FIG. 10)) of the same substance?
Answer: suboptimal immunosuppression effect
